Consider 104 compounds from ChEMBL document CHEMBL3507680, “University of Dundee, Gates Library screen for HepG2 cell viability”.

Structures are written as SMILES.

The data set can be described thus: Human HepG2 cell viability assay in 384 well format. The class given is toxicity, cell-based. Details: dose 125 nL, time 70.5 hour; concentration not given beside the values. To be noted: HepG2 cells, read-out: Inhibition.
`O=C(c1ccc2c(c1)CCC2)N1CCCCC1C1OCCO1` (centres undefined): the cytotoxicity at 70.5 h is -7.93%.

Regarding `N#Cc1ccc(SCCOCCO)c(F)c1`, the cytotoxicity at 70.5 h was -8.55%.

Consider `CN(C)c1ncccc1C(=O)N1CCN(C2=NCC(C)(C)S2)CC1`, for which the cytotoxicity at 70.5 h came out at 6.73%.

Regarding `O=C(CC1OCCc2ccsc21)NCC1CC1` (centres undefined), the cytotoxicity at 70.5 h was -1.8%.

For the compound `NC(=O)CCNC(=O)Cc1cccc(I)c1`, the cytotoxicity at 70.5 h amounted to 16.7%.

Regarding `COCCn1ccc(NCc2scnc2C)n1`, the cytotoxicity at 70.5 h is -8.55%.

On to `N#Cc1ccc(SCCOCCO)c(Cl)c1`, for which the cytotoxicity at 70.5 h was -5.04%.

Regarding `c1ccc(Cc2noc(CN3CCCC3C3CCCCC3)n2)cc1` (centres undefined), the cytotoxicity at 70.5 h is 16.5%.

With `CN(C)C(C(=O)NCC1(O)CCCCC1)c1c(F)cccc1F` (centres undefined), the cytotoxicity at 70.5 h is -13%.

For the compound `CCOc1ccnc(N2CCN(CCOC)CC2)n1`, the cytotoxicity at 70.5 h is -5.63%.

As for `Cc1cnc(CN2CCN(C(C)c3nc(C)no3)CC2)cn1` (centres undefined), the cytotoxicity at 70.5 h came to 17.2%.

Turning to `CC(C)N(Cc1ccccc1)Cc1nnsc1Cl`, the cytotoxicity at 70.5 h is -8.66%.

For the compound `CCNC(=O)CN1CCOC(c2ccccc2C(F)(F)F)C1` (centres undefined), the cytotoxicity at 70.5 h worked out at 0.292%.

With `CCOCCOCc1cccc(CNc2cncc(-n3cccn3)n2)c1`, the cytotoxicity at 70.5 h was -2.12%.

Turning to `COc1ncccc1CNCc1c(C(C)C)nn(C)c1Cl`, the cytotoxicity at 70.5 h is -5.22%.

As to `COc1ccccc1C(C)CNC(=O)c1c(C)nn(C)c1OC` (centres undefined), the cytotoxicity at 70.5 h is -3.39%.

Regarding `COc1ncccc1CNCc1c(C(C)C)nn(C)c1N(C)C`, the cytotoxicity at 70.5 h was -1.75%.

As for `COc1ccc(NC(=O)N(C)Cc2ccc(Br)o2)cn1`, the cytotoxicity at 70.5 h is -6.19%.

On to `CCN(CC)C(=O)c1ccc(COc2ccccc2C#N)o1`, for which the cytotoxicity at 70.5 h was -9.63%.

For the compound `Cn1ccnc1COc1ccc(NC(=O)C2CCCO2)cc1` (centres undefined), the cytotoxicity at 70.5 h amounted to 3.57%.

As for `Cc1cccc(-c2ccc(C(=O)NCCN3CCOCC3)c(=O)[nH]2)c1`, the cytotoxicity at 70.5 h is -6.01%.

As to `N#CCCN(CCC#N)C(=O)c1ccc(COc2ccccc2C#N)o1`, the cytotoxicity at 70.5 h is 6.22%.

Turning to `O=C(NCCCN1CCOCC1)c1ccc(-c2ccccc2)[nH]c1=O`, the cytotoxicity at 70.5 h was -5.86%.

Regarding `CCSCCC(=O)NCCn1nc2ccccn2c1=O`, the cytotoxicity at 70.5 h is -7.12%.

Take `COc1ccccc1N1CCC(CNC(=O)CN2CSCC2=O)C1` (centres undefined): the cytotoxicity at 70.5 h is -7.92%.

For `CN(Cc1cccs1)C(=O)c1ccc(N2CCOCC2)c(F)c1`, the cytotoxicity at 70.5 h stood at 12.4%.

On to `O=C(CN1CCCCCC1=O)NCC1CCN(c2ccccc2)C1` (centres undefined), for which the cytotoxicity at 70.5 h is -5.56%.

Turning to `COc1cc(NC(=O)NCCO)ccc1N1CCOC1=O`, the cytotoxicity at 70.5 h is -6.58%.

On to `COc1cc(NC(=O)NC(C2CC2)C2CC2)ccc1N1CCOC1=O`, for which the cytotoxicity at 70.5 h was -18%.

`COc1ncccc1CNCc1c(C(C)C)nn(C)c1OC`: the cytotoxicity at 70.5 h was -4.91%.

For `CN(Cc1ccc2c(c1)OCO2)C(=O)c1ccn(C)c(=O)c1`, the cytotoxicity at 70.5 h was -10.8%.

As for `COc1c(CNCc2ccc(CN3CCOCC3)cc2)c(C)nn1C`, the cytotoxicity at 70.5 h amounted to 5.61%.

With `COc1c(CNCc2cccnc2OC(C)C)c(C(C)C)nn1C`, the cytotoxicity at 70.5 h was -8.38%.

Turning to `Cc1ccsc1CN(C)C(=O)c1ccc(N2CCOCC2)c(F)c1`, the cytotoxicity at 70.5 h is -7.5%.

For `COC(=O)NCCC(=O)NCC1(c2cccc(Cl)c2)CC1`, the cytotoxicity at 70.5 h was -6.53%.

Regarding `O=C(CCc1ccncc1)Nc1ccc(OCC2CCOCC2)cc1`, the cytotoxicity at 70.5 h was -13.6%.

In the case of `COC(=O)NCCCC(=O)NC1(c2cccc(Cl)c2)CC1`, the cytotoxicity at 70.5 h was -6.46%.

`CN(Cc1cc(=O)c(O)co1)C1CCN(c2ccc(F)cc2)CC1`: the cytotoxicity at 70.5 h came out at 22.1%.

On to `CNS(=O)(=O)CC1CCCN1C(=O)c1ccc2cc[nH]c2c1` (centres undefined), for which the cytotoxicity at 70.5 h was -7.71%.

Take `COC(=O)Cc1cccc(NC(=O)Cc2cc(C)[nH]n2)c1`: the cytotoxicity at 70.5 h came out at 21.3%.

Take `Cc1cc(=O)n(C)cc1NC(=O)CC1CCC1`: the cytotoxicity at 70.5 h was -2.84%.

In the case of `O=C(CCc1ccncc1)Nc1ccc(OCC2CC2)cc1`, the cytotoxicity at 70.5 h was -11.9%.

In the case of `CCc1nc(C(=O)N2CCN(Cc3ccc(Cl)cc3)CC2)c[nH]1`, the cytotoxicity at 70.5 h is -2.01%.

`CC(C)C(=O)N1CCC(NC2CCSCC2)C1` (centres undefined): the cytotoxicity at 70.5 h is -4.83%.

Take `CCc1nc(C(=O)N2CCN(C(=O)CCc3ccccc3)CC2)c[nH]1`: the cytotoxicity at 70.5 h is -6.61%.

For `CCc1nnc2n1CC(CNCC1CCCC1)CC2` (centres undefined), the cytotoxicity at 70.5 h was -1.75%.

With `Cc1cc(C)c(CNC(=O)C2COc3ccccc3C2)c(=O)[nH]1` (centres undefined), the cytotoxicity at 70.5 h was found to be 0.458%.

Regarding `Cc1n[nH]c(C)c1NC(=O)Nc1cccnc1N1CCCC1`, the cytotoxicity at 70.5 h is 12.8%.

In the case of `Cc1cc(C)c(CNC(=O)NC2COc3ccccc3C2)c(=O)[nH]1` (centres undefined), the cytotoxicity at 70.5 h was -8.39%.

As for `Cc1cc(C)c(CNC(=O)NCC2Cc3ccccc32)c(=O)[nH]1` (centres undefined), the cytotoxicity at 70.5 h is -12%.

Regarding `Cc1cc(C)c(CNC(=O)NCC2COc3ccccc3C2)c(=O)[nH]1` (centres undefined), the cytotoxicity at 70.5 h is -10.2%.

Regarding `O=S1(=O)N=C(CSCc2ccccc2)Nc2ccccc21`, the cytotoxicity at 70.5 h was -3.64%.

In the case of `Cn1nc2c(cc1=O)CN(c1ncnc3ccsc13)CC2`, the cytotoxicity at 70.5 h stood at 3.58%.

For the compound `Cc1nnc(C(NS(=O)(=O)c2cc(C)c(F)cc2F)C(C)C)[nH]1` (centres undefined), the cytotoxicity at 70.5 h was -6.79%.

As to `Cc1ccc(NC(=O)CN2CCC(OCC3CCCO3)CC2)c(C)c1` (centres undefined), the cytotoxicity at 70.5 h came out at 5.15%.

For `CNC(=O)CN1CCC(OCC2CCCO2)CC1` (centres undefined), the cytotoxicity at 70.5 h was -8.23%.

As to `CS(=O)(=O)Cc1cc(F)ccc1NCc1nnsc1Cl`, the cytotoxicity at 70.5 h was found to be 12.3%.

As for `COc1cc(CNc2cc(-c3nncn3C)ccn2)cc(OC)c1OC`, the cytotoxicity at 70.5 h was -3.3%.

Consider `CCN1CCC(NC(=O)NCC(O)c2ccc(Cl)c(F)c2)CC1` (centres undefined), for which the cytotoxicity at 70.5 h is 6.86%.

With `O=C(NCC(O)c1ccc(Cl)c(F)c1)NC1CC=CC1` (centres undefined), the cytotoxicity at 70.5 h was -3.83%.

On to `CC(=O)N1CCN(c2ccnc3c(F)cc(Br)cc23)CC1`, for which the cytotoxicity at 70.5 h was -1.55%.

Regarding `COc1cccc(CN(C)Cn2nc(C(C)(C)C)ccc2=O)c1`, the cytotoxicity at 70.5 h was determined as 2.69%.

Turning to `CN(Cc1cccc(C#N)c1)Cn1nc(C(C)(C)C)ccc1=O`, the cytotoxicity at 70.5 h was -0.146%.

As to `CSCC(=O)N(C)Cc1ccc(N(C)C)cc1`, the cytotoxicity at 70.5 h is -6.63%.

`CC(C)(C)c1nnc(CN(Cc2cccs2)CC2CCCO2)o1` (centres undefined): the cytotoxicity at 70.5 h was -1.38%.

On to `CCOCC1CCN(C(=O)Nc2ccc3c(c2)CCCO3)C1` (centres undefined), for which the cytotoxicity at 70.5 h was determined as 17.3%.

Consider `CCCc1nnc(NC(=O)N2CCCC2c2ccncc2)s1` (centres undefined), for which the cytotoxicity at 70.5 h came out at 18.5%.

As for `O=C(NCCNC(=O)c1ccc(Br)cc1)c1ccc(O)cc1`, the cytotoxicity at 70.5 h is -11%.

For the compound `N#Cc1cccnc1NCc1ccc(S(=O)(=O)NC2CC2)cc1`, the cytotoxicity at 70.5 h is -17.8%.

Consider `N#Cc1cccnc1NCc1ccc(S(=O)(=O)NCC2CCCO2)cc1` (centres undefined), for which the cytotoxicity at 70.5 h worked out at 14%.

With `CC(C)N(Cc1ccc(C#N)cc1)Cc1nnsc1Cl`, the cytotoxicity at 70.5 h is -15.5%.

With `COc1cc2c(cc1OC)S(=O)(=O)N(Cc1cccc(C)c1)C2=O`, the cytotoxicity at 70.5 h was -11.2%.

With `CC(O)CN(c1ccccc1)S(=O)(=O)c1cc(C(=O)O)cc2c1CCC2` (centres undefined), the cytotoxicity at 70.5 h was -7.68%.

For the compound `CCNC(=O)NC(=O)C(C)N1CCCc2cc(OC)ccc2C1` (centres undefined), the cytotoxicity at 70.5 h was -10.4%.

In the case of `CCNC(=O)C1CCCN(C(=O)Nc2ccc3c(c2)CCCN3C)C1` (centres undefined), the cytotoxicity at 70.5 h was -9.82%.

As to `COc1cc2c(cc1OC)S(=O)(=O)N(Cc1ccccc1C)C2=O`, the cytotoxicity at 70.5 h is 23.7%.

In the case of `CC(C)Oc1ccc(CNC(=O)c2cc(C(N)=O)cs2)cc1F`, the cytotoxicity at 70.5 h was -12.2%.

For `CC(C)NC(=O)CNC(=O)OC(C)(C)C`, the cytotoxicity at 70.5 h is -13%.

For `CCc1ncncc1C(=O)Nc1ccc2ccn(CCN(C)C)c2c1`, the cytotoxicity at 70.5 h is -9.77%.

As for `Cc1ncccc1C(=O)Nc1ccc2ccn(CCN(C)C)c2c1`, the cytotoxicity at 70.5 h is -4.81%.

On to `O=C(NCCNc1ccc(Br)cn1)c1ccc(O)cc1`, for which the cytotoxicity at 70.5 h was -6.46%.

For `O=C(c1ccncc1)N1CCN(C(=O)c2coc3ccccc23)CC1`, the cytotoxicity at 70.5 h was -11%.

Regarding `CC(C)C[C@H](NC(=O)CNC(=O)OC(C)(C)C)C(=O)OC(C)(C)C`, the cytotoxicity at 70.5 h is -0.919%.

For `OCC(O)CSCc1nnc(-c2cccc(F)c2)o1` (centres undefined), the cytotoxicity at 70.5 h is -14.7%.

Regarding `CCS(=O)(=O)CC(C)N(C)C(=O)NCCc1cccc(F)c1F` (centres undefined), the cytotoxicity at 70.5 h was -5.89%.

For `N#Cc1cccnc1NCc1cccc(C(=O)NCC2CCCCO2)c1` (centres undefined), the cytotoxicity at 70.5 h is -10.4%.

Consider `COC(=O)C(C)N1CCCc2cc(OC)ccc2C1` (centres undefined), for which the cytotoxicity at 70.5 h was -4.67%.

With `O=C(NCCNc1cncc(Br)c1)c1ccc(O)cc1`, the cytotoxicity at 70.5 h was -8.4%.

With `O=C(NCCc1cccs1)N1CCCC1CCCO` (centres undefined), the cytotoxicity at 70.5 h was -9.42%.

On to `CCCc1nn(C2CCN(C(C)C)C2=O)c(=O)o1` (centres undefined), for which the cytotoxicity at 70.5 h is -1.04%.

For the compound `COc1cccc(CNc2nc(C)cc(C)n2)c1OC`, the cytotoxicity at 70.5 h is -2.87%.

Take `CC(NC(=O)Cn1cc(C(N)=O)c(-c2ccccc2)n1)C1CC1` (centres undefined): the cytotoxicity at 70.5 h was -10%.

Consider `CCCN(C(=O)c1cnns1)C1CCCN(Cc2ccccc2)C1` (centres undefined), for which the cytotoxicity at 70.5 h is -7.29%.

On to `CCOc1ccccc1C(CC(=O)N(C)C)NC(C)=O` (centres undefined), for which the cytotoxicity at 70.5 h is -0.953%.

As to `CCOc1ccccc1C(CC(=O)N(C)c1ccccc1)NC(C)=O` (centres undefined), the cytotoxicity at 70.5 h turned out to be 15.9%.

Take `Cn1cnc2c1CCN(CCOc1ccc3c(c1)CCC(=O)N3)C2`: the cytotoxicity at 70.5 h is -12.1%.

For `O=C(Nc1ccc(CCN2CCSCC2)cc1)NC1CC1`, the cytotoxicity at 70.5 h is -11.9%.

Take `CN1CCOC(CNCc2c(Cl)nc3ccccn23)C1` (centres undefined): the cytotoxicity at 70.5 h is -19.2%.

`Cc1cc(C)n(C2CN(CC(=O)NCc3ccccn3)C2)n1`: the cytotoxicity at 70.5 h is -16.2%.

As to `O=C(CCc1nc(C2CC2)no1)c1ccc2c(c1)OCCO2`, the cytotoxicity at 70.5 h is -16.9%.

As for `CC(C(=O)Nc1cc(F)ccc1F)N1CCN(Cc2ncc[nH]2)CC1` (centres undefined), the cytotoxicity at 70.5 h came out at 42.5%.

With `CC(C)c1nn(C)c(Cl)c1CNCc1cccnc1N(C)C`, the cytotoxicity at 70.5 h was -9.54%.

Consider `CC(C)c1noc(CN2CCC(C3CCCCCN3S(C)(=O)=O)CC2)n1` (centres undefined), for which the cytotoxicity at 70.5 h amounted to 11%.

On to `CC(=O)N1CCCCCC1C1CCN(Cc2nc(C(C)C)no2)CC1` (centres undefined), for which the cytotoxicity at 70.5 h is 0.62%.
